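All cell lines were grown in 96-well plates and treated with compound for 48 hours. GI50 is the concentration that inhibits growth by half. Definition used: TGI = concentration required for complete inhibition of growth.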
Legend:
Experiment in all cases: NCI-60 cell line screen, 48 h
786-0 renal = test system: 786-0 renal
A549 NSCLC = test system: A549 NSCLC
ACHN renal = test system: ACHN renal
COLO 205 colon = test system: COLO 205 colon
HCT-15 colon = test system: HCT-15 colon
MOLT-4 leukemia = test system: MOLT-4 leukemia
NCI-H460 lung = test system: NCI-H460 lung
U251 CNS = test system: U251 CNS
UACC-257 melanoma = test system: UACC-257 melanoma
EKVX NSCLC = test system: EKVX NSCLC

| SMILES | GI50 (786-0 renal) | TGI (786-0 renal) | GI50 (A549 NSCLC) | TGI (A549 NSCLC) | GI50 (ACHN renal) | TGI (ACHN renal) | GI50 (COLO 205 colon) | TGI (COLO 205 colon) | GI50 (HCT-15 colon) | TGI (HCT-15 colon) | GI50 (MOLT-4 leukemia) | TGI (MOLT-4 leukemia) | GI50 (NCI-H460 lung) | TGI (NCI-H460 lung) | GI50 (U251 CNS) | TGI (U251 CNS) | GI50 (UACC-257 melanoma) | TGI (UACC-257 melanoma) | TGI (EKVX NSCLC) | GI50 (EKVX NSCLC) |
| --- | --- | --- | --- | --- | --- | --- | --- | --- | --- | --- | --- | --- | --- | --- | --- | --- | --- | --- | --- | --- |
| COc1ccc([N+](=O)[O-])c(S(=O)(=O)c2ccc(Cl)cc2)n1 | 2.51 µM | 7.18 µM | 18.5 µM | 41.9 µM | 2.08 µM | 4.11 µM | 1.96 µM | 3.88 µM | 2.05 µM | 5.22 µM | 3.59 µM | > 100 µM | 14.6 µM | 30.1 µM | 8.69 µM | 21.6 µM | 11.3 µM | 23.7 µM |  |  |
| Cn1cc(C2=C(c3cn(CCN)c4ccccc34)C(=O)NC2=O)c2ccccc21 | 8.98 µM | > 25 µM | 6.75 µM | > 25 µM | 5.47 µM | > 25 µM | 2.7 µM | 7.15 µM | 6.79 µM | > 25 µM | 6.48 µM | 19.9 µM | 7.54 µM | > 25 µM | 5.61 µM | > 20.5 µM | 6.17 µM | 15.2 µM |  |  |
| O=C(/C=C\c1ccc(Cl)cc1Cl)c1cccs1 |  | 34.6 µM |  | > 100 µM |  | 27.9 µM |  | 30.7 µM |  | 34.4 µM |  | > 100 µM |  | 89.5 µM |  |  |  | 36.4 µM | 34.3 µM |  |
| COc1cc(-c2cc(-c3nc4ccc(Cl)cc4[nH]3)[nH]n2)cc(OC)c1OC | 5.32 µM | 18.3 µM | 2.96 µM | 13.1 µM | 2.96 µM | 12.9 µM | 3.18 µM | 10 µM | 2.9 µM | 13.2 µM | 2.02 µM | 4.82 µM | 3.65 µM | 14 µM | 3.38 µM | 14.1 µM | 2.6 µM | 7.55 µM |  |  |
| Nc1c(C(=O)Nc2ccccc2Cl)sc2nc3c(cc12)CCCCCC3 | 1.75 µM | 3.27 µM | 4.54 µM | 73.2 µM | 2.17 µM | 4.86 µM | 8.52 µM | > 100 µM | 1.59 µM | > 100 µM |  |  | 3.32 µM | 13.9 µM | 2.99 µM | 21.3 µM | 11.1 µM | > 100 µM |  |  |
| CC(C)(C)C(=O)C1CC(=O)c2ccccc2C1=O (centres undefined) |  | > 100 µM |  | > 100 µM |  | > 100 µM |  | > 100 µM |  |  |  | 75.9 µM |  | > 100 µM |  | 99.7 µM |  | 46.1 µM | > 100 µM |  |
| Cc1ccccc1CN1CC=c2ccccc2=N1 |  | > 100 µM |  | > 100 µM |  | > 100 µM |  | > 100 µM |  | > 100 µM |  |  |  | > 100 µM |  | > 100 µM |  | > 100 µM | > 100 µM |  |
| NC(=S)N/N=C1/C(=O)N(c2ccc(Cl)cc2Cl)C(=O)C(=O)C1c1nc2ccccc2s1 (centres undefined) |  | > 100 µM |  |  |  | > 100 µM |  | > 100 µM |  | > 100 µM |  | > 100 µM |  | > 100 µM |  | > 100 µM |  | > 100 µM | > 100 µM |  |
| COC(=O)C(Cl)=C1CC1 |  | 65.4 µM |  | > 100 µM |  | 49.2 µM |  | 38.3 µM |  | 57.6 µM |  | 53.4 µM |  | > 100 µM |  |  |  | > 100 µM |  |  |
| CN(C)CC1(C)CC/C(=C\c2ccccc2)C1=O (centres undefined) |  | > 100 µM |  | > 100 µM |  | > 100 µM |  | > 100 µM |  | > 100 µM |  | > 100 µM |  | > 100 µM |  | > 100 µM |  | > 100 µM |  |  |
| O=C(Nc1c(O)[nH]c(=S)[nH]c1=O)c1ccc2ccccc2n1 |  | > 100 µM |  | > 100 µM |  | > 100 µM |  | > 100 µM |  | > 100 µM |  | > 100 µM |  | > 100 µM |  | > 100 µM |  | > 100 µM |  |  |
| COc1ccc(-c2nc(-c3nc4ccc(OC)cc4[nH]3)cc3c2[nH]c2ccccc23)cc1 | 4.62 µM | > 100 µM | 1.92 µM | > 100 µM | 2.33 µM | > 100 µM | 6.76 µM | > 100 µM | 2.88 µM | > 100 µM | 1.98 µM | > 100 µM | 2.05 µM | > 100 µM | 2.89 µM | > 100 µM | 4.34 µM | > 100 µM |  |  |
| COc1ccc(C2=NN(C(C)=O)C(c3cn(-c4ccccc4)nc3-c3ccc(Cl)cc3)C2)cc1 (centres undefined) | 30.7 µM | > 100 µM |  |  | > 100 µM | > 100 µM | > 100 µM | > 100 µM |  | > 100 µM | > 100 µM | > 100 µM |  |  | 7.44 µM | > 100 µM | > 100 µM | > 100 µM | > 100 µM | > 100 µM |
| Cc1ccc(Cl)c(NC(=O)C(=O)C(C(=O)c2ccncc2)C2OC(=O)c3ccccc32)c1 (centres undefined) |  | > 100 µM |  | > 100 µM |  | > 100 µM |  | > 100 µM |  | > 100 µM |  |  |  | > 100 µM |  | > 100 µM |  | > 100 µM | > 100 µM |  |
| COc1cc2nc(Nc3cccc(F)c3)nc(Nc3cc(C)[nH]n3)c2cc1OC | 1.75 µM | 3.45 µM |  |  | 1.78 µM | 3.17 µM | 2.25 µM | 4.99 µM | 1.22 µM | 2.72 µM | 1.89 µM | 5.76 µM | 1.83 µM | 3.74 µM | 1.82 µM | 3.73 µM | 1.87 µM | 3.64 µM | 3.41 µM | 1.75 µM |
| O=c1c2ccccc2c2nc3ccccc3nc2n1C1CCCCC1 |  | > 100 µM |  | > 100 µM |  | > 100 µM |  | > 100 µM |  | > 100 µM |  | > 100 µM |  |  |  | > 100 µM |  | > 100 µM | > 100 µM |  |
| Cc1ccc(C)c(-c2csc(Nc3ccc(C)c(C)c3)n2)c1 | 39.5 µM | > 100 µM | > 100 µM | > 100 µM | 82.2 µM | > 100 µM | > 100 µM | > 100 µM | 4.08 µM | > 100 µM | > 100 µM | > 100 µM |  |  | 52.9 µM | > 100 µM | > 100 µM | > 100 µM |  |  |
| C[C@@H]1C=C2C(=O)O[C@@H]3CC[C@H](C1)[C@]23O | 4.29 µM | 17.7 µM | 12.7 µM | 47 µM | 3.93 µM | 16.9 µM | 4.64 µM | 15.7 µM | 3 µM | 18.1 µM | 3.08 µM | 21 µM |  | 32 µM | 13.9 µM | 27.5 µM | 2.33 µM | 16.2 µM |  |  |
